The text below walks through data of article PMC5132298 (PLoS ONE, 2016).

Assay [1] relates to Alternaria sonali, Fulvia fulva, Botrytis cinerea and Rhizoctonia solani. Details: method as in PMID 23451708. As to conditions: 4 fungal pathogens; cited from earlier work.
The target in assay [2] is T1, ScErg11p6×His (S. cerevisiae lanosterol 14α-demethylase) (Saccharomyces cerevisiae, UniProt P10614).
T1 construct: Crystal structures of the full length S. cerevisiae lanosterol 14α-demethylase (ScErg11p6×His); 6×His (hexahistidine); made in house; host or cells: Saccharomyces cerevisiae (AD3Δ overexpression strain, native ERG11 deleted)
T1 sequence (P10614 whole entry): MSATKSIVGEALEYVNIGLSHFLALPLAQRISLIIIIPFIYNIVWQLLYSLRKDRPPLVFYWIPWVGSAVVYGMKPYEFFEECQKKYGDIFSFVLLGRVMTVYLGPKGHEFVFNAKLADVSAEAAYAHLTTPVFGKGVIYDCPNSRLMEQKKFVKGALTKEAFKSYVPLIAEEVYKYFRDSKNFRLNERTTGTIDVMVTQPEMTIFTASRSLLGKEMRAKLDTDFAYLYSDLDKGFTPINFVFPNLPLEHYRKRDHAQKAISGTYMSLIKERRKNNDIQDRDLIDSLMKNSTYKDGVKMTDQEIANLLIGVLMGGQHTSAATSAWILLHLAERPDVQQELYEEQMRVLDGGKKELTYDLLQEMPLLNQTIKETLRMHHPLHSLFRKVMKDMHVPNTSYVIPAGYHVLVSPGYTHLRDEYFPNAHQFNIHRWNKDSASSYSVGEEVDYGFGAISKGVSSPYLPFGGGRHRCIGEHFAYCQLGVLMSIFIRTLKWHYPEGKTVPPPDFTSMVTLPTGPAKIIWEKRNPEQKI
The experiment in a line: Type II binding (difference spectra) to affinity purified ScErg11p6×His. Conditions: for Induced spectral shift on ligand binding Wavelength: Soret peak, (-) indicates no significant change in Soret peak wavelength. How it is done:
Type II azole binding is characterised by a shift of the Soret peak from 417 nm to 421–424 nm in ScErg11p6×His and other cytochrome P450s. The type II difference spectra were used to detect and quantitate binding of the inhibitors S-TBZ, R-TBZ, S-PTZ, R-PTZ, S-DPZ, R-DPZ, S-oxo-PTZ and R-oxo-PTZ, FQZ, and PRZ using Ni-NTA affinity purified wild type ScErg11p6×His preparations at 1 μM. Spectral shifts, [Azole]0.5 values, Hill coefficients as well as Type II difference spectra binding curves are shown in S3 Table (selected spectra shown in S2 Fig) and Fig 6, respectively.
Samples of Ni-NTA-agarose affinity purified ScErg11p6×His were eluted with 40 mM histidine instead of imidazole as described by Warrilow et al.. Samples were washed free of the histidine and concentrated by centrifugal filtration using a 50 kDa molecular-weight cut-off Amicon Ultra-4 centrifugal filter (Millipore) to give protein with a Soret peak at 417 nm. Carbon monoxide binding was used to determine the concentration of functional cytochrome P450 for drug binding studies as described previously based on the protocol described by Guengerich et al. Saturation curves for the binding of type II ligands were determined by obtaining difference spectra for functional enzyme at 1 μM as described previously. […] All calculations were carried out using GraphPad Prism 6 Software (GraphPad Prism, San Diego, CA). [Azole]0.5 values were defined as the concentration of the azole drug that gave half ΔAmax.
Hill coefficients and Kd values were obtained by applying the Hill equation as described in Materials and methods. (-) indicates no significant change in Soret peak wavelength on exposure to the ligand. The data presented is a representative set

For a further assay, the system named is Candida albicans CYP51. Also on record: method as in PMID 23275516. Conditions: cited from earlier work.

Like-named read-outs stand apart in the source and are kept apart here.

Consider `C[C@@H]1CO[C@@](Cn2cncn2)(c2ccc(Oc3ccc(Cl)cc3)cc2Cl)O1` [2S,4R stereoisomer, 1-(((2S,4R)-2-(2-chloro-4-(4-chlorophenoxy)phenyl)-4-methyl-1,3-dioxolan-2-yl)methyl)-1H-1,2,4-triazole], for which the “stereoselective bioactivity among DFC stereoisomers” value in assay [1] is given as “most active compound”.

As to `OC(Cc1ccccc1Cl)(Cn1nc[nH]c1=S)C1(Cl)CC1` (stereo not shown) [PTZ, prothioconazole], in assay [2], the “Induced spectral shift on ligand binding Wavelength” value is reported as “absence of a spectral shift”. For the same molecule, the “type of binding (difference spectra)” value in assay [2] (azole up to 2 μM, 1 μM ScErg11p6×His) was “no binding”. Further, the Kd (as a rule, the concentration at which binding is half-saturated) in the assay with Candida albicans CYP51 (Candida albicans CYP51, type I difference spectra, read-out: Kd (weak type I difference spectra)) is 6.3 ± 1.5 µM.

On to `OC(Cc1ccccc1Cl)(Cn1cncn1)C1(Cl)CC1` (stereo not shown) [DPZ, prothioconazole-desthio], for which, in assay [2] (ScErg11p6×His), the mode of inhibition entry is “non-competitive inhibitors”. In addition, the “Induced spectral shift on ligand binding Wavelength” value in assay [2] is on record as 417 nm to ~421. In addition, the Kd with Candida albicans CYP51 (read-out: Kd (tight type II binding), Candida albicans CYP51, type II binding) was 0.0364 ± 0.0107 µM.
